# From US4340609A, “Amidinourea derivative veterinary compositions for suppression of parasitemia” (William H. Rorer, Inc., priority 1980, dated 1982)
# Where two headings read alike, the source gives them in different places.
# Tests used:
# [1] = test system: plasmodium berghei; experiment: suppression of parasitemia in mice infected with plasmodium berghei; type: in vivo; details: for ED50: Plasmodium berghei, sc
# Protocol: Five representative amidinoureas were tested in mice infected with plasmodium berghei. The five compounds tested are the following:
# Groups of 10 mice each were used in seven doses totaling 70 mice per compound. The protozoal infection was induced by intraperitoneal injection of 5,000,000 parasitized blood cells from a donor. The compound was administered subcutaneously in doses ranging from 0.15 to 10 mg. per kg., suspended on 0.5% methacel solution (doses expressed as base). The compound was repeatedly injected on the day of inoculation (day 1), day 2 and day 3. Blood smears were performed on days 4, 5, 6 and 10.
# Untreated control but infected mice developed fulminating parasitemia of as high as 35% on day 10 and deaths occurred from day 12 to 14.
# [2] = LD50 in mice; details: mouse, in vivo
# [3] = mice, s.c., 1.0 mg/kg on days 1-3, 4th day
# [4] = mice, s.c., 1.0 mg/kg on days 1-3, 5th day
# [5] = mice, s.c., 1.0 mg/kg on days 1-3, 6th day
# [6] = mice, s.c., 1.0 mg/kg on days 1-3, 10th day
# [7] = mice, s.c., 2.0 mg/kg on days 1-3, 4th day
# [8] = mice, s.c., 2.0 mg/kg on days 1-3, 5th day
# [9] = mice, s.c., 2.0 mg/kg on days 1-3, 6th day
# [10] = mice, s.c., 2.0 mg/kg on days 1-3, 10th day
# [11] = mice, s.c., 10.0 mg/kg on days 1-3, 4th day
# [12] = mice, s.c., 10.0 mg/kg on days 1-3, 5th day
# [13] = mice, s.c., 10.0 mg/kg on days 1-3, 6th day
# [14] = mice, s.c., 10.0 mg/kg on days 1-3, 10th day
# [15] = mice, s.c., .15 mg/kg on days 1-3, 4th day
# [16] = mice, s.c., .15 mg/kg on days 1-3, 5th day
# [17] = mice, s.c., .15 mg/kg on days 1-3, 6th day
# [18] = mice, s.c., .15 mg/kg on days 1-3, 10th day
# [19] = mice, s.c., .20 mg/kg on days 1-3, 4th day
# [20] = mice, s.c., .20 mg/kg on days 1-3, 5th day
# [21] = mice, s.c., .20 mg/kg on days 1-3, 6th day
# [22] = mice, s.c., .20 mg/kg on days 1-3, 10th day
# [23] = mice, s.c., .30 mg/kg on days 1-3, 4th day
# [24] = mice, s.c., .30 mg/kg on days 1-3, 5th day
# [25] = mice, s.c., .30 mg/kg on days 1-3, 6th day
# [26] = mice, s.c., .30 mg/kg on days 1-3, 10th day
# [27] = mice, s.c., .50 mg/kg on days 1-3, 4th day
# [28] = mice, s.c., .50 mg/kg on days 1-3, 5th day
# [29] = mice, s.c., .50 mg/kg on days 1-3, 6th day
# [30] = mice, s.c., .50 mg/kg on days 1-3, 10th day
structure (smiles),measurement,setting,value
"CCCNC(=O)NC(=N)Nc1c(Cl)cccc1Cl [Compound A, 1-(2,6-dichlorophenylamidino)-3-n-propylurea]",ED50,"[1]; 96 h, mice, s.c., levels of parasitemia, 4th day, read-out: SED50 (Suppressant Effective Dose50)",0.71 mg/kg
same,ED50,"[1]; 120 h, mice, s.c., levels of parasitemia, 5th day, read-out: SED50 (Suppressant Effective Dose50)",1.2 mg/kg
same,ED50,"[1]; 144 h, mice, s.c., levels of parasitemia, 6th day, read-out: SED50 (Suppressant Effective Dose50)",1.05 mg/kg
same,ED50,"[1]; 240 h, mice, s.c., levels of parasitemia, 10th day, read-out: SED50 (Suppressant Effective Dose50)",1.58 mg/kg
same,ED50,"[1]; mice, day 4 to day 10, read-out: HIGHEST SED50",1.58 mg/kg
same,ED50,"[1]; mice, day 4 to day 10, read-out: LOWEST SED50",0.71 mg/kg
same,FACTOR (HIGHEST SED50 ÷ LOWEST SED50),"[1]; factor of change, day 4 to day 10, duration of action",2.23
same,duration of action,"[1]; mice, among the five compounds",longest duration of action
same,SED50 rank,"[1]; mice, day 10, among the five compounds",lowest SED50 on day 10
same,Mean % Parasitemia,[1]; [3],2.50%
same,Mean % Suppression,[1]; [3],52.3%
same,Mean % Parasitemia,[1]; [4],4.20%
same,Mean % Suppression,[1]; [4],42.5%
same,Mean % Parasitemia,[1]; [5],4.60%
same,Mean % Suppression,[1]; [5],50.5%
same,Mean % Parasitemia,[1]; [6],20.4%
same,Mean % Suppression,[1]; [6],42.5%
same,% died,"[1]; mice, s.c., 1.0 mg/kg on days 1-3, 12th day",0%
same,% died,"[1]; mice, s.c., 1.0 mg/kg on days 1-3, 13th day",20%
same,% died,"[1]; mice, s.c., 1.0 mg/kg on days 1-3, 14th day",40%
same,Mean % Parasitemia,[1]; [7],2.25%
same,Mean % Suppression,[1]; [7],57.1%
same,Mean % Parasitemia,[1]; [8],3.00%
same,Mean % Suppression,[1]; [8],59.0%
same,Mean % Parasitemia,[1]; [9],3.80%
same,Mean % Suppression,[1]; [9],59.1%
same,Mean % Parasitemia,[1]; [10],16.5%
same,Mean % Suppression,[1]; [10],53.5%
same,% died,"[1]; mice, s.c., 2.0 mg/kg on days 1-3, 12th day",0%
same,% died,"[1]; mice, s.c., 2.0 mg/kg on days 1-3, 13th day",0%
same,% died,"[1]; mice, s.c., 2.0 mg/kg on days 1-3, 14th day",20%
same,Mean % Parasitemia,[1]; [11],0%
same,Mean % Suppression,[1]; [11],100.0%
same,Mean % Parasitemia,[1]; [12],0%
same,Mean % Suppression,[1]; [12],100.0%
same,Mean % Parasitemia,[1]; [13],0%
same,Mean % Suppression,[1]; [13],100.0%
same,Mean % Parasitemia,[1]; [14],0%
same,Mean % Suppression,[1]; [14],100.0%
same,% died,"[1]; mice, s.c., 10.0 mg/kg on days 1-3, 12th day",0%
same,% died,"[1]; mice, s.c., 10.0 mg/kg on days 1-3, 13th day",0%
same,% died,"[1]; mice, s.c., 10.0 mg/kg on days 1-3, 14th day",0%
same,Mean % Parasitemia,[1]; [15],5.00%
same,Mean % Suppression,[1]; [15],4.8%
same,Mean % Parasitemia,[1]; [16],6.90%
same,Mean % Suppression,[1]; [16],5.5%
same,Mean % Parasitemia,[1]; [17],8.10%
same,Mean % Suppression,[1]; [17],12.9%
same,Mean % Parasitemia,[1]; [18],33.02%
same,Mean % Suppression,[1]; [18],7.0%
same,% died,"[1]; mice, s.c., .15 mg/kg on days 1-3, 12th day",40%
same,% died,"[1]; mice, s.c., .15 mg/kg on days 1-3, 13th day",60%
same,% died,"[1]; mice, s.c., .15 mg/kg on days 1-3, 14th day",80%
same,Mean % Parasitemia,[1]; [19],4.00%
same,Mean % Suppression,[1]; [19],23.8%
same,Mean % Parasitemia,[1]; [20],6.80%
same,Mean % Suppression,[1]; [20],6.8%
same,Mean % Parasitemia,[1]; [21],7.50%
same,Mean % Suppression,[1]; [21],19.4%
same,Mean % Parasitemia,[1]; [22],30.1%
same,Mean % Suppression,[1]; [22],15.2%
same,% died,"[1]; mice, s.c., .20 mg/kg on days 1-3, 12th day",0%
same,% died,"[1]; mice, s.c., .20 mg/kg on days 1-3, 13th day",20%
same,% died,"[1]; mice, s.c., .20 mg/kg on days 1-3, 14th day",20%
same,Mean % Parasitemia,[1]; [23],3.25%
same,Mean % Suppression,[1]; [23],38.1%
same,Mean % Parasitemia,[1]; [24],6.30%
same,Mean % Suppression,[1]; [24],13.7%
same,Mean % Parasitemia,[1]; [25],7.20%
same,Mean % Suppression,[1]; [25],22.6%
same,Mean % Parasitemia,[1]; [26],28.5%
same,Mean % Suppression,[1]; [26],19.7%
same,% died,"[1]; mice, s.c., .30 mg/kg on days 1-3, 12th day",0%
same,% died,"[1]; mice, s.c., .30 mg/kg on days 1-3, 13th day",20%
same,% died,"[1]; mice, s.c., .30 mg/kg on days 1-3, 14th day",20%
same,Mean % Parasitemia,[1]; [27],2.75%
same,Mean % Suppression,[1]; [27],47.6%
same,Mean % Parasitemia,[1]; [28],5.00%
same,Mean % Suppression,[1]; [28],31.5%
same,Mean % Parasitemia,[1]; [29],5.40%
same,Mean % Suppression,[1]; [29],41.9%
same,Mean % Parasitemia,[1]; [30],24.8%
same,Mean % Suppression,[1]; [30],30.1%
same,% died,"[1]; mice, s.c., .50 mg/kg on days 1-3, 12th day",0%
same,% died,"[1]; mice, s.c., .50 mg/kg on days 1-3, 13th day",0%
same,% died,"[1]; mice, s.c., .50 mg/kg on days 1-3, 14th day",40%
same,LD50,[2],> 600 mg/kg
